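Growth conditions: 96-well plates. Treatment: test compound, 48 hours, 5 concentrations. Analysis: linear interpolation between bracketing concentrations; unreached endpoints set to highest concentration. GI50 is the concentration that inhibits growth by half.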 Calls of active or inactive are those of the source. Rule as the data show it: active = GI50 up to about 1.1 µM and inactive = higher.
Legend:
Experiment in all cases: NCI-60 cell line screen, 48 h
[1] = test system: 786-0
[2] = test system: A498
[3] = test system: A549
[4] = test system: ACHN
[5] = test system: CAKI-1
[6] = test system: CCRF-CEM
[7] = test system: COLO 205
[8] = test system: DU-145
[9] = test system: EKVX
[10] = test system: HCC 2998
[11] = test system: HCT-116
[12] = test system: HCT-15
[13] = test system: HOP-62
[14] = test system: HOP-92
[15] = test system: HT-29
[16] = test system: Hs-578T
[17] = test system: IGROV-1
[18] = test system: K562
[19] = test system: KM12
[20] = test system: LOX IMVI
[21] = test system: M14
[22] = test system: MCF7
[23] = test system: MDA-MB-231
[24] = test system: MDA-MB-435
[25] = test system: MDA-N
[26] = test system: MOLT-4
[27] = test system: Malme-3M
[28] = test system: NCI-H226
[29] = test system: NCI-H23
[30] = test system: NCI-H460
[31] = test system: NCI-H522
[32] = test system: NCI/ADR-RES
[33] = test system: OVCAR-3
[34] = test system: OVCAR-4
[35] = test system: OVCAR-5
[36] = test system: OVCAR-8
[37] = test system: PC-3
[38] = test system: RPMI-8226
[39] = test system: RXF 393
[40] = test system: SF-268
[41] = test system: SF-295
[42] = test system: SK-MEL-28
[43] = test system: SK-MEL-2
[44] = test system: SK-MEL-5
[45] = test system: SK-OV-3
[46] = test system: SN12C
[47] = test system: SNB-19
[48] = test system: SNB-75
[49] = test system: SR
[50] = test system: SW-620
[51] = test system: T47D
[52] = test system: TK-10
[53] = test system: U-251
[54] = test system: UACC-257
[55] = test system: UACC-62
[56] = test system: UO-31
[57] = test system: BT-549
[58] = test system: HL-60
[59] = test system: SF-539

Question: For `C=CCC1NCCC2=C1C(S(=O)(=O)c1ccc(C)cc1)c1ccccc12` (stereo unspecified), which GI50 [1] is on record?
Answer: The GI50 was 12.9 µM (inactive).

Question: What about the GI50 [2] of the same compound?
Answer: Its GI50 is 19 µM (inactive).

Question: And the GI50 [3]?
Answer: Its GI50 is 15.1 µM (inactive).

Question: What about the GI50 [4] of the same compound?
Answer: Its GI50 is 7.16 µM (inactive).

Question: What about the GI50 [5] of the same compound?
Answer: The GI50 was 6.92 µM (inactive).

Question: What about the GI50 [6] of the same compound?
Answer: Its GI50 is 7.96 µM (inactive).

Question: What about the GI50 [7] of the same compound?
Answer: The GI50 was 2 µM (inactive).

Question: What about the GI50 [8] of the same compound?
Answer: Its GI50 is 11.9 µM (inactive).

Question: And the GI50 [9]?
Answer: Its GI50 is 18 µM (inactive).

Question: What about the GI50 [10] of the same compound?
Answer: Its GI50 is 1.85 µM (inactive).

Question: And the GI50 [11]?
Answer: The GI50 was 11.1 µM (inactive).

Question: And the GI50 [12]?
Answer: The GI50 was 11.9 µM.

Question: What about the GI50 [13] of the same compound?
Answer: The GI50 was 14.5 µM (inactive).

Question: And the GI50 [14]?
Answer: The GI50 was 9.95 µM (inactive).

Question: And the GI50 [15]?
Answer: The GI50 was 16 µM (inactive).

Question: What about the GI50 [16] of the same compound?
Answer: The GI50 was 13.7 µM (inactive).

Question: What about the GI50 [17] of the same compound?
Answer: Its GI50 is 8.11 µM (inactive).

Question: What about the GI50 [18] of the same compound?
Answer: Its GI50 is 5.62 µM (inactive).

Question: And the GI50 [19]?
Answer: The GI50 was 9.46 µM (inactive).

Question: And the GI50 [20]?
Answer: Its GI50 is 8.91 µM (inactive).

Question: And the GI50 [21]?
Answer: Its GI50 is 11.8 µM (inactive).

Question: What about the GI50 [22] of the same compound?
Answer: Its GI50 is 7.13 µM (inactive).

Question: What about the GI50 [23] of the same compound?
Answer: The GI50 was 12.1 µM (inactive).

Question: What about the GI50 [24] of the same compound?
Answer: The GI50 was 5.47 µM (inactive).

Question: What about the GI50 [25] of the same compound?
Answer: The GI50 was 6.9 µM (inactive).

Question: What about the GI50 [26] of the same compound?
Answer: The GI50 was 6.56 µM (inactive).

Question: What about the GI50 [27] of the same compound?
Answer: The GI50 was 11.2 µM (inactive).

Question: And the GI50 [28]?
Answer: Its GI50 is 16.8 µM (inactive).

Question: And the GI50 [29]?
Answer: Its GI50 is 18 µM (inactive).

Question: And the GI50 [30]?
Answer: Its GI50 is 11.7 µM (inactive).

Question: What about the GI50 [31] of the same compound?
Answer: The GI50 was 10.1 µM (inactive).

Question: What about the GI50 [32] of the same compound?
Answer: Its GI50 is 12.6 µM (inactive).

Question: And the GI50 [33]?
Answer: Its GI50 is 12.5 µM (inactive).

Question: And the GI50 [34]?
Answer: The GI50 was 12.1 µM (inactive).

Question: What about the GI50 [35] of the same compound?
Answer: The GI50 was 18.1 µM (inactive).

Question: And the GI50 [36]?
Answer: The GI50 was 14.3 µM (inactive).

Question: And the GI50 [37]?
Answer: Its GI50 is 10.4 µM (inactive).

Question: What about the GI50 [38] of the same compound?
Answer: Its GI50 is 5.55 µM (inactive).

Question: And the GI50 [39]?
Answer: Its GI50 is 5.66 µM (inactive).

Question: What about the GI50 [40] of the same compound?
Answer: Its GI50 is 14.9 µM (inactive).

Question: What about the GI50 [41] of the same compound?
Answer: The GI50 was 13.7 µM (inactive).

Question: And the GI50 [42]?
Answer: The GI50 was 12.4 µM (inactive).

Question: What about the GI50 [43] of the same compound?
Answer: Its GI50 is 13.5 µM (inactive).

Question: And the GI50 [44]?
Answer: The GI50 was 14.3 µM (inactive).

Question: And the GI50 [45]?
Answer: Its GI50 is 16.6 µM (inactive).

Question: What about the GI50 [46] of the same compound?
Answer: Its GI50 is 14.4 µM (inactive).

Question: What about the GI50 [47] of the same compound?
Answer: The GI50 was 16.5 µM (inactive).

Question: And the GI50 [48]?
Answer: The GI50 was 5.64 µM (inactive).

Question: What about the GI50 [49] of the same compound?
Answer: The GI50 was 3.64 µM (inactive).

Question: And the GI50 [50]?
Answer: Its GI50 is 14.2 µM (inactive).

Question: And the GI50 [51]?
Answer: Its GI50 is 10.4 µM (inactive).

Question: And the GI50 [52]?
Answer: The GI50 was 16.4 µM (inactive).

Question: What about the GI50 [53] of the same compound?
Answer: Its GI50 is 11.5 µM (inactive).

Question: What about the GI50 [54] of the same compound?
Answer: Its GI50 is 20.2 µM (inactive).

Question: And the GI50 [55]?
Answer: Its GI50 is 11.7 µM (inactive).

Question: What about the GI50 [56] of the same compound?
Answer: Its GI50 is 7.67 µM (inactive).

Question: What does the source list for `COc1ccc(-n2c(=O)c3nc(S)[nH]c3n(-c3ccc(OC)cc3)c2=S)cc1`?
Answer: GI50 [1]: > 100 µM (inactive); GI50 [2]: > 100 µM (inactive); GI50 [3]: > 100 µM (inactive); GI50 [4]: > 100 µM (inactive); GI50 [57]: > 100 µM (inactive); GI50 [5]: > 100 µM (inactive); GI50 [6]: > 100 µM (inactive); GI50 [7]: > 100 µM (inactive); GI50 [8]: > 100 µM (inactive); GI50 [9]: > 100 µM (inactive); GI50 [10]: > 100 µM (inactive); GI50 [11]: > 100 µM (inactive); GI50 [12]: > 100 µM; GI50 [58]: > 100 µM (inactive); GI50 [13]: > 100 µM (inactive); GI50 [14]: > 100 µM (inactive); GI50 [15]: > 100 µM (inactive); GI50 [17]: > 100 µM (inactive); GI50 [18]: > 100 µM (inactive); GI50 [19]: > 100 µM (inactive); GI50 [20]: > 100 µM (inactive); GI50 [21]: > 100 µM (inactive); GI50 [22]: > 100 µM (inactive); GI50 [23]: > 100 µM (inactive); GI50 [24]: > 100 µM (inactive); GI50 [26]: > 100 µM (inactive); GI50 [28]: > 100 µM (inactive); GI50 [29]: > 100 µM (inactive); GI50 [30]: > 100 µM (inactive); GI50 [31]: 57.4 µM (inactive); GI50 [32]: > 100 µM (inactive); GI50 [33]: > 100 µM (inactive); GI50 [34]: > 100 µM (inactive); GI50 [35]: > 100 µM (inactive); GI50 [36]: > 100 µM (inactive); GI50 [37]: > 100 µM (inactive); GI50 [38]: > 100 µM (inactive); GI50 [39]: > 100 µM (inactive); GI50 [40]: > 100 µM (inactive); GI50 [41]: > 100 µM (inactive); GI50 [59]: > 100 µM (inactive); GI50 [42]: > 100 µM (inactive); GI50 [43]: > 100 µM (inactive); GI50 [44]: > 100 µM (inactive); GI50 [45]: > 100 µM (inactive); GI50 [46]: > 100 µM (inactive); GI50 [48]: > 100 µM (inactive); GI50 [49]: > 100 µM (inactive); GI50 [50]: > 100 µM (inactive); GI50 [51]: > 100 µM (inactive); GI50 [52]: > 100 µM (inactive); GI50 [53]: > 100 µM (inactive); GI50 [54]: > 100 µM (inactive); GI50 [55]: > 100 µM (inactive); GI50 [56]: > 100 µM (inactive)

Source: ChEMBL document CHEMBL1201862, “PubChem BioAssay data set” (2004)
